# Target: Human VPS34 (Homo sapiens (Human), UniProt Q8NEB9)
# Test: Human VPS34 enzyme assay (Adapta TR-FRET)
# Type: biochemical
# Conditions: IC50 range class
# Human VPS34, sequence (Q8NEB9 whole entry): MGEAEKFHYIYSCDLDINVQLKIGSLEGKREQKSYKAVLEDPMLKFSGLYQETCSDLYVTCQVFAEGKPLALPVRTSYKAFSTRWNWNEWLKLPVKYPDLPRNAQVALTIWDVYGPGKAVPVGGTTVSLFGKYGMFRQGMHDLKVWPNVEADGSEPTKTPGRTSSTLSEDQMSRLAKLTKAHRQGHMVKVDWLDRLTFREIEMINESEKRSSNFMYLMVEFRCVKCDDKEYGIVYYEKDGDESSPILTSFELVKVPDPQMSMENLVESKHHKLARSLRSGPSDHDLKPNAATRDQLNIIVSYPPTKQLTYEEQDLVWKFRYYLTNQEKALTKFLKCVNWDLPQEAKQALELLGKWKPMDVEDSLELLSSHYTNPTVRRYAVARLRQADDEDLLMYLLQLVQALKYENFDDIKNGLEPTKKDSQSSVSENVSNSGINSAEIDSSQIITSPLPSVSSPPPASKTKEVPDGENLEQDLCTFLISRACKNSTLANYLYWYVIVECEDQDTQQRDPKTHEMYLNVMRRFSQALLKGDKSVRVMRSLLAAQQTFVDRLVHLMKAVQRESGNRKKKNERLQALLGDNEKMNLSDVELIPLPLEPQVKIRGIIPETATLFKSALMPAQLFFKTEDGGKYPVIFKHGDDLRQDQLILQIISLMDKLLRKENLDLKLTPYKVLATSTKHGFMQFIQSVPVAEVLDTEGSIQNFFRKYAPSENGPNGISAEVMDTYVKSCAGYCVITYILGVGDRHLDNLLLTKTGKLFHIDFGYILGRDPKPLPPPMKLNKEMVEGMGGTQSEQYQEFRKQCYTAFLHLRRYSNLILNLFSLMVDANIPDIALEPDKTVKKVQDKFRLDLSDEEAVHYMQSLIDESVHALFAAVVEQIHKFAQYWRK
row,Structure (SMILES),IC50 [µM]
1,"CC(=O)Nc1cc(-c2cnc(C)c(NS(=O)(=O)c3nccn3C)c2)ccn1 [Compound I-92, N-(6-methyl-5-{[(1-methyl-1H-imidazol-2-yl)sulfonyl]amino}-3,4′-bipyridin-2′-yl)acetamide]",0.01 to 0.05

# Same assay, conditions: compound concentration 1.11 μM
row,Structure (SMILES),Percent Inhibition [%]
1,"CC(=O)Nc1cc(-c2cnc(N)c(S(=O)(=O)NCC(C)C)c2)ccn1 [Compound I-73, N-[6-amino-5-(isobutylsulfamoyl)-3,4′-bipyridin-2′-yl]acetamide]",>99

# Same assay, conditions: compound concentration 1.11 μM; read-out: Percent Inhibition
row,Structure (SMILES),inhibition at 1.11 µM [%]
1,"COc1ccccc1S(=O)(=O)Nc1cc(-c2ccnc(NC(C)=O)c2)cnc1C [Compound I-74, N-(5-{[(2-methoxyphenyl)sulfonyl]amino}-6-methyl-3,4′-bipyridin-2′-yl)acetamide]",> 99
2,"CC(=O)Nc1cc(-c2cnc(C)c(C(=O)N(C)C)c2)ccn1 [Compound I-75, 2′-acetamido-N,N,6-trimethyl-3,4′-bipyridine-5-carboxamide]",> 99
3,CC(=O)Nc1cc(-c2cnc(N)c(S(=O)(=O)N(C)Cc3ccccc3)c2)ccn1 [Compound I-76],> 99
4,"CC(=O)Nc1cc(-c2cnc(N)c(S(=O)(=O)N(C(C)C)C(C)C)c2)ccn1 [Compound I-77, N-[6-amino-5-(diisopropylsulfamoyl)-3,4′-bipyridin-2′-yl]acetamide]",> 99
5,"CC(=O)Nc1cc(-c2cnc(C)c(NS(=O)(=O)c3cccc4ccccc34)c2)ccn1 [Compound I-78, N-{6-methyl-5-[(1-naphthylsulfonyl)amino]-3,4′-bipyridin-2′-yl}acetamide]",> 99
6,"CC(=O)Nc1cc(-c2cnc(N)c(C(=O)N3CCN(C)CC3)c2)ccn1 [Compound I-79, N-{6-amino-5-[(4-methylpiperazin-1-yl)carbonyl]-3,4′-bipyridin-2′-yl}acetamide]",> 99
7,"CC(=O)Nc1cc(-c2cnc(C)c(NS(=O)(=O)c3ccc(C)cc3)c2)ccn1 [Compound I-80, N-(6-methyl-5-{[(4-methylphenyl)sulfonyl]amino}-3,4′-bipyridin-2′-yl)acetamide]",> 99
8,"CC(=O)Nc1cc(-c2cnc(N)c(C(=O)N3CCC(C)CC3)c2)ccn1 [Compound I-81, N-{6-amino-5-[(4-methylpiperidin-1-yl)carbonyl]-3,4′-bipyridin-2′-yl}acetamide]",> 99
9,"CC(=O)Nc1cc(-c2cnc(N)c(C(=O)Nc3cccc(F)c3)c2)ccn1 [Compound I-82, 2′-acetamido-6-amino-N-(3-fluorophenyl)-3,4′-bipyridine-5-carboxamide]",> 99
10,"CC(=O)Nc1cc(-c2cnc(C)c(N(CC3CC3)S(=O)(=O)C3CC3)c2)ccn1 [Compound I-83, N-{5-[(cyclopropylmethyl)(cyclopropylsulfonyl)amino]-6-methyl-3,4′-bipyridin-2′-yl}acetamide]",82
11,"CC(=O)Nc1cc(-c2cnc(C)c(NS(=O)(=O)c3ccccc3)c2)ccn1 [Compound I-84, N-{6-methyl-5-[(phenylsulfonyl)amino]-3,4′-bipyridin-2′-yl}acetamide]",> 99
12,CC(=O)Nc1cc(-c2cnc3[nH]cc(CN(C)C)c3c2)ccn1 [Compound I-85],90
13,"CC(=O)Nc1cc(-c2ccc(S(=O)(=O)Nc3cc(-c4ccnc(NC(C)=O)c4)cnc3C)c(F)c2)ccn1 [Compound I-86, N-(4-{4-[(2′-acetamido-6-methyl-3,4′-bipyridin-5-yl)sulfamoyl]-3-fluorophenyl}pyridin-2-yl)acetamide]",> 99
14,"CC(=O)Nc1cc(-c2cnc(N)c(S(=O)(=O)N3CCCC3)c2)ccn1 [Compound I-87, N-[6-amino-5-(pyrrolidin-1-ylsulfonyl)-3,4′-bipyridin-2′-yl]acetamide]",> 99
15,"CC(=O)Nc1cc(-c2cnc(C)c(N3CCCS3(=O)=O)c2)ccn1 [Compound I-88, N-[5-(1,1-dioxidoisothiazolidin-2-yl)-6-methyl-3,4′-bipyridin-2′-yl]acetamide]",> 99
16,"CNS(=O)(=O)c1cc(-c2ccnc(NC(C)=O)c2)cnc1N [Compound I-89, N-[6-amino-5-(methylsulfamoyl)-3,4′-bipyridin-2′-yl]acetamide]",> 99
17,"CC(=O)Nc1cc(-c2cnc(C)c(NS(=O)(=O)c3ccc(C(F)(F)F)cc3)c2)ccn1 [Compound I-90, N-[6-methyl-5-({[4-(trifluoromethyl)phenyl]sulfonyl}amino)-3,4′-bipyridin-2′-yl]acetamide]",> 99
18,"CC(=O)Nc1cc(-c2cnc(N)c(C(=O)Nc3cccnc3)c2)ccn1 [Compound I-91, 2′-acetamido-6-amino-N-(pyridin-3-yl)-3,4′-bipyridine-5-carboxamide]",> 99
19,"CC(=O)Nc1cc(-c2cnc(C)c(NS(=O)(=O)c3nccn3C)c2)ccn1 [Compound I-92, N-(6-methyl-5-{[(1-methyl-1H-imidazol-2-yl)sulfonyl]amino}-3,4′-bipyridin-2′-yl)acetamide]",> 99
20,CC(=O)Nc1cc(-c2cnc3ccn(CC4CC4)c3c2)ccn1 [Compound I-93],86
21,"CC(=O)Nc1cc(-c2cnc(C)c(NS(=O)(=O)c3ccc(Cl)cc3F)c2)ccn1 [Compound I-94, N-(5-{[(4-chloro-2-fluorophenyl)sulfonyl]amino}-6-methyl-3,4′-bipyridin-2′-yl)acetamide]",98

row,Structure (SMILES),inhibition at 1.11 µM [%]
1,"CC(=O)Nc1cc(-c2cnc(N)c(S(C)(=O)=O)c2)ccn1 [Compound I-95, N-[6-amino-5-(methylsulfonyl)-3,4′-bipyridin-2′-yl]acetamide]",> 99
2,"CC(=O)Nc1cc(-c2cnc(C)c(N(C)S(C)(=O)=O)c2)ccn1 [Compound I-96, N-{6-methyl-5-[methyl(methylsulfonyl)amino]-3,4′-bipyridin-2′-yl}acetamide]",> 99
3,"CC(=O)Nc1cc(-c2cnc(N)c(S(=O)(=O)Nc3cccc(Cl)c3)c2)ccn1 [Compound I-97, N-{6-amino-5-[(3-chlorophenyl)sulfamoyl]-3,4′-bipyridin-2′-yl}acetamide]",> 99
4,"CC(=O)Nc1cc(-c2cnc(N)c(S(=O)(=O)Nc3ccc4ccccc4c3)c2)ccn1 [Compound I-98, N-[6-amino-5-(2-naphthylsulfamoyl)-3,4′-bipyridin-2′-yl]acetamide]",> 99
5,"CC(=O)Nc1cc(-c2cnc(N)c(S(=O)(=O)Cc3ccc(Cl)cc3)c2)ccn1 [Compound I-99, N-{6-amino-5-[(4-chlorobenzyl)sulfonyl]-3,4′-bipyridin-2′-yl}acetamide]",> 99
6,"CNc1ncc(-c2ccnc(NC(C)=O)c2)cc1S(=O)(=O)Nc1ccccc1 [Compound I-100, N-[6-(methylamino)-5-(phenylsulfamoyl)-3,4′-bipyridin-2′-yl]acetamide]",> 99
7,"CC(=O)Nc1cc(-c2cnc(N)c(S(=O)(=O)NC3CCCCC3)c2)ccn1 [Compound I-101, N-[6-amino-5-(cyclohexylsulfamoyl)-3,4′-bipyridin-2′-yl]acetamide]",> 99
8,"CC(=O)Nc1cc(-c2cncc(NS(=O)(=O)c3ccc(F)cc3F)c2C)ccn1 [Compound I-102, N-(5-{[(2,4-difluorophenyl)sulfonyl]amino}-4-methyl-3,4′-bipyridin-2′-yl)acetamide]",> 99
9,"CC(=O)Nc1cc(-c2cnc3[nH]cc(S(=O)(=O)N4CCN(C)CC4)c3c2)ccn1 [Compound I-103, N-(4-{3-[(4-methylpiperazin-1-yl)sulfonyl]-1H-pyrrolo[2,3-b]pyridin-5-yl}pyridin-2-yl)acetamide]",> 99
10,"COc1ncc(-c2ccnc(NC(C)=O)c2)cc1NS(=O)(=O)c1ccc(F)cc1F [Compound I-104, N-(5-{[(2,4-difluorophenyl)sulfonyl]amino}-6-methoxy-3,4′-bipyridin-2′-yl)acetamide]",> 99
11,"CC(=O)Nc1cc(-c2cnc3cn(S(=O)(=O)C4CC4)nc3c2)ccn1 [Compound I-105, N-{4-[2-(cyclopropylsulfonyl)-2H-pyrazolo[4,3-b]pyridin-6-yl]pyridin-2-yl}acetamide]",> 99
12,"CC(=O)Nc1cc(-c2cncc(NC(=O)Cc3ccccc3)c2)ccn1 [Compound I-106, N-(2′-acetamido-3,4′-bipyridin-5-yl)-2-phenylacetamide]",64
13,"COc1ncc(-c2ccnc(NC(C)=O)c2)cc1S(=O)(=O)Nc1ccc(F)cc1F [Compound I-107, N-{5-[(2,4-difluorophenyl)sulfamoyl]-6-methoxy-3,4′-bipyridin-2′-yl}acetamide]",> 99
14,"CC(=O)Nc1cc(-c2cnc(N)c(S(=O)(=O)NCC3CC3)c2)ccn1 [Compound I-108, N-{6-amino-5-[(cyclopropylmethyl)sulfamoyl]-3,4′-bipyridin-2′-yl}acetamide]",> 99
15,"CC(=O)Nc1cc(-c2cnc(C)c(NS(=O)(=O)c3ccccc3Cl)c2)ccn1 [Compound I-109, N-(5-{[(2-chlorophenyl)sulfonyl]amino}-6-methyl-3,4′-bipyridin-2′-yl)acetamide]",> 99
16,"CC(=O)Nc1cc(-c2cnc(N)c(S(=O)(=O)N(C)CC3CC3)c2)ccn1 [Compound I-110, N-{6-amino-5-[(cyclopropylmethyl)(methyl)sulfamoyl]-3,4′-bipyridin-2′-yl}acetamide]",> 99
17,"CC(=O)Nc1cc(-c2cnc(C)c(NS(=O)(=O)c3cc(Cl)ccc3Cl)c2)ccn1 [Compound I-111, N-(5-{[(2,5-dichlorophenyl)sulfonyl]amino}-6-methyl-3,4′-bipyridin-2′-yl)acetamide]",> 99
18,"CC(=O)Nc1cc(-c2cnc(N(C)C)c(C(=O)Nc3ccc(F)cc3F)c2)ccn1 [Compound I-112, 2′-acetamido-N-(2,4-difluorophenyl)-6-(dimethylamino)-3,4′-bipyridine-5-carboxamide]",> 99
19,"CC(=O)Nc1cc(-c2cnc(C)c(NS(=O)(=O)c3ccc(OC(F)(F)F)cc3Cl)c2)ccn1 [Compound I-113, N-[5-({[2-chloro-4-(trifluoromethoxy)phenyl]sulfonyl}amino)-6-methyl-3,4′-bipyridin-2′-yl]acetamide]",> 99
20,"CC(=O)Nc1cc(-c2cnc(C)c(NS(=O)(=O)C3CC3)c2)ccn1 [Compound I-114, N-{5-[(cyclopropylsulfonyl)amino]-6-methyl-3,4′-bipyridin-2′-yl}acetamide]",> 99

# From patent US9802960B2 (MILLENNIUM PHARMACEUTICALS, INC., priority 2014, dated 2017)
